{"source": "paper PMC7143535", "about": "“Synthesis, Pharmacological and Structural Characterization of Novel Conopressins from Conus miliaris” (Marine Drugs, 2020)", "key": {"[1]": {"target": "T1, human vasopressin2 receptor (hV2R) (Homo sapiens, UniProt P30518)", "T1 construct": "host or cells: COS-1", "T1 sequence (P30518 whole entry)": "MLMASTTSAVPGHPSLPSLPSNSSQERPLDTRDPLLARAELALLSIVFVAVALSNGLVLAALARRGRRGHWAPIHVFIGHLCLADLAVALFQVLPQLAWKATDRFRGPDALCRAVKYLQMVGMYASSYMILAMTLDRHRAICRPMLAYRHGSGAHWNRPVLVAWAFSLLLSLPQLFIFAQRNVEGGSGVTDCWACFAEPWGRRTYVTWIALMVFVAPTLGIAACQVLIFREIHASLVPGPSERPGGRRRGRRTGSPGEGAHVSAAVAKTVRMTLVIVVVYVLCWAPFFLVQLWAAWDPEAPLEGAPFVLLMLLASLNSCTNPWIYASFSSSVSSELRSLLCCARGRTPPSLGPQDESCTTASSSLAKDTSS", "test": "cell-based"}, "[2]": {"test_system": "zebrafish vasopressin2 receptor (ZF V2R)", "assay_type": "cell-based, zebrafish (Danio rerio)"}, "[3]": {"target": "T2, human vasopressin-1b receptor (hV1bR) (Homo sapiens, UniProt P47901)", "T2 construct": "host or cells: COS-1", "T2 sequence (P47901 1-424)": "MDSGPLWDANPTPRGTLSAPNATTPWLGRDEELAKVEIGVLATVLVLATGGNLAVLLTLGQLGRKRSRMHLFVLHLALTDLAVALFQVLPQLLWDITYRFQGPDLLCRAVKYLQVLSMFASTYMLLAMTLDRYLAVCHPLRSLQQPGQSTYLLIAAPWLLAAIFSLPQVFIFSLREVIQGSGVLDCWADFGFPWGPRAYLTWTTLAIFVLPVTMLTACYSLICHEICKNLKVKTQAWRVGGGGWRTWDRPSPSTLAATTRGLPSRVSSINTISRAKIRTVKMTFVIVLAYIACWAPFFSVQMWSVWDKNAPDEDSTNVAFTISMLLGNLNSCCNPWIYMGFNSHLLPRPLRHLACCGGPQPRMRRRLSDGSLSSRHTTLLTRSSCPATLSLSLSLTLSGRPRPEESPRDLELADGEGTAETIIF", "test": "cell-based", "assay_type": "cell-based"}, "[4]": {"target": "T3, human oxytocin receptor (hOTR) (Homo sapiens, UniProt P30559)", "T3 construct": "host or cells: COS-1", "T3 sequence (P30559 1-389)": "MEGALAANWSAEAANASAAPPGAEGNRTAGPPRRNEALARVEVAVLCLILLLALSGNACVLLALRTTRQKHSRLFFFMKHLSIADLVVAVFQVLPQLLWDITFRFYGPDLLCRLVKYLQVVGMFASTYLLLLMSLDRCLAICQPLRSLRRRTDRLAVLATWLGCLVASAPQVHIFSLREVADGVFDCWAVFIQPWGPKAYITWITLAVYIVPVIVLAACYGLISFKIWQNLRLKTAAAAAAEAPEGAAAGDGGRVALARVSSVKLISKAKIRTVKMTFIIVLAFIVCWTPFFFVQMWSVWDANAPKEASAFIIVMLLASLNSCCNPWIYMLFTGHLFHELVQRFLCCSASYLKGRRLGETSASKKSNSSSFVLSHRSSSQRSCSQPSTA", "test": "cell-based", "assay_type": "cell-based"}, "[5]": {"target": "T4, human vasopressin-1a receptor (hV1aR) (Homo sapiens, UniProt P37288)", "T4 construct": "host or cells: COS-1", "T4 sequence (P37288 whole entry)": "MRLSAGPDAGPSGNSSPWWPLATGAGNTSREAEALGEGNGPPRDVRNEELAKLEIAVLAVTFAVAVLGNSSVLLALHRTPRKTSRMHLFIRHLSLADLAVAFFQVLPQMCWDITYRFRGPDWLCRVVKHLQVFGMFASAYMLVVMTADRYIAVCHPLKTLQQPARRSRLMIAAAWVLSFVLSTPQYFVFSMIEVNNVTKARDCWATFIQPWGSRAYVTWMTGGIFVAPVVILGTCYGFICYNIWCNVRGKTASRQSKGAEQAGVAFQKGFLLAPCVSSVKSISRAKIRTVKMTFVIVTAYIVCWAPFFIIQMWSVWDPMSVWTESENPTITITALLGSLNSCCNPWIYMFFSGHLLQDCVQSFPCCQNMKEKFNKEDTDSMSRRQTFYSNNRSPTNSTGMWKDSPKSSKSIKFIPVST", "test": "cell-based"}, "[6]": {"target": "T5, zebrafish oxytocin/isotocin receptor (ZF oxy/isoR) (Danio rerio, UniProt E4W699)", "T5 construct": "host or cells: COS-1", "T5 sequence (E4W699 1-388)": "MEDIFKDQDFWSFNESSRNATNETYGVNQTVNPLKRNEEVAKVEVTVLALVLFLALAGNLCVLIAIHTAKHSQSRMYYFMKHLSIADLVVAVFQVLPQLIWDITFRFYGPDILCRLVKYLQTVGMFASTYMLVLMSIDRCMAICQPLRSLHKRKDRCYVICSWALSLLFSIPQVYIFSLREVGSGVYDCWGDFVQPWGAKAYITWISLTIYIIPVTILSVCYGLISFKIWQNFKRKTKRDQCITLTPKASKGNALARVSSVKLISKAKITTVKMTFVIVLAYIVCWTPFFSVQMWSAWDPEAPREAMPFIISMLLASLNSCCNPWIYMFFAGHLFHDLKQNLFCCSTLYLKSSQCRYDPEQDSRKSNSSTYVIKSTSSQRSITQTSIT", "test": "cell-based", "assay_type": "cell-based"}, "[7]": {"target": "zebrafish vasopressin1-a2 receptor (ZF V1a2R)", "assay_type": "cell-based, zebrafish (Danio rerio)"}, "[8]": {"target": "zebrafish vasopressin1-a1 receptor (ZF V1a1R)", "assay_type": "cell-based, zebrafish (Danio rerio)"}}, "note": "pEC50: −log10 of the molar value. Read-outs that look alike come from different tables or passages of the source. Residues, ends and D or L forms follow the SMILES beside them.", "data": [{"compound": "CC[C@H](C)[C@@H]1NC(=O)[C@H](Cc2ccc(O)cc2)NC(=O)[C@@H](N)CSSC[C@@H](C(=O)N2CCC[C@H]2C(=O)N[C@@H](CCCNC(=N)N)C(=O)NCC(N)=O)NC(=O)[C@H](CC(N)=O)NC(=O)[C@H](CCC(N)=O)NC1=O", "note": "[Vasotocin, vasotocin] (HELM PEPTIDE1{C.Y.I.Q.N.C.P.R.G.[am]}$PEPTIDE1,PEPTIDE1,1:R3-6:R3$$$V2.0; N-terminus assumed)", "values": [{"measurement": "pEC50", "setting": "[1]", "result": 9.30}, {"measurement": "Selectivity hV2R", "setting": "[1]", "result": "hV2R (x28945.5) > ZF V1a1R (x38.8) > ZF oxy (x18.7) > hOTR(x9.8) > ZF V1a2R (x5.7) > hV1bR (x3.7) > ZF V2R (x3.1) > hV1aR"}, {"measurement": "fold more potent on hV2R than on ZF V2R", "setting": "[1]", "result": "~10,000 fold"}, {"measurement": "Selectivity ZF V2R", "setting": "[2]", "result": "hV2R (x28945.5) > ZF V1a1R (x38.8) > ZF oxy (x18.7) > hOTR(x9.8) > ZF V1a2R (x5.7) > hV1bR (x3.7) > ZF V2R (x3.1) > hV1aR"}, {"measurement": "pEC50", "setting": "[2]; read-out: EC50 / affinity at ZF V2R", "result": 5.30}, {"measurement": "pEC50", "setting": "[2]; read-out: Mean EC50 ZF V2R", "result": 8.29}, {"measurement": "pEC50", "setting": "[3]", "result": 8.37}, {"measurement": "Selectivity hV1bR", "setting": "[3]", "result": "hV2R (x28945.5) > ZF V1a1R (x38.8) > ZF oxy (x18.7) > hOTR(x9.8) > ZF V1a2R (x5.7) > hV1bR (x3.7) > ZF V2R (x3.1) > hV1aR"}, {"measurement": "pEC50", "setting": "[4]", "result": 8.79}, {"measurement": "Selectivity hOTR", "setting": "[4]", "result": "hV2R (x28945.5) > ZF V1a1R (x38.8) > ZF oxy (x18.7) > hOTR(x9.8) > ZF V1a2R (x5.7) > hV1bR (x3.7) > ZF V2R (x3.1) > hV1aR"}, {"measurement": "pEC50", "setting": "[5]", "result": 7.80}, {"measurement": "pEC50", "setting": "[6]", "result": 9.07}, {"measurement": "Selectivity ZF oxy", "setting": "[6]", "result": "hV2R (x28945.5) > ZF V1a1R (x38.8) > ZF oxy (x18.7) > hOTR(x9.8) > ZF V1a2R (x5.7) > hV1bR (x3.7) > ZF V2R (x3.1) > hV1aR"}, {"measurement": "pEC50", "setting": "[7]", "result": 8.56}, {"measurement": "Selectivity ZF V1a2R", "setting": "[7]", "result": "hV2R (x28945.5) > ZF V1a1R (x38.8) > ZF oxy (x18.7) > hOTR(x9.8) > ZF V1a2R (x5.7) > hV1bR (x3.7) > ZF V2R (x3.1) > hV1aR"}, {"measurement": "pEC50", "setting": "[8]", "result": 9.39}, {"measurement": "Selectivity ZF V1a1R", "setting": "[8]", "result": "hV2R (x28945.5) > ZF V1a1R (x38.8) > ZF oxy (x18.7) > hOTR(x9.8) > ZF V1a2R (x5.7) > hV1bR (x3.7) > ZF V2R (x3.1) > hV1aR"}]}]}
